Test results published in patent publication EP2848286A1, “Cosmetic composition comprising chicoric acid” (DSM IP Assets B.V., priority 2013, dated 2015).
Where two headings read alike, the source gives them in different places.

System: C3H10 T1/2 cells
Assay: Adipocyte differentiation / automated determination of lipid accumulation in adipocytes
Type: cell-based
Details: Mus musculus, C3H 10T1/2, 168 h, 50 micromolar chicoric acid, differentiated C3H10 T1/2 adipocytes, 7 days in DM-Supplemented (200nM Insulin, 10µM Rosiglitazone)
Procedure: C3H10 T1/2 cells were seeded on Collagen Type I coated 24-well plates at a cell density of 3.8x10^4 cells/mL in Differentiation Base medium (DM-Base), containing DMEM without Phenol Red, supplemented with 10% FCS, 4mM L-Glutamine and 1% Pen/Strep (v/v) at 37° C in an incubator with 5% CO2 atmosphere and 85%-90% relative humidity over 72hours. After this pre-incubation, DM-Base is replaced by DM-Supplemented, containing DM-Base plus 200nM Insulin, plus 10µM Rosiglitazone. Test compounds (e.g.: chicoric acid) were added in DM-Supplemented, and kept in culture for 7 consecutive days. Each experiment was performed in triplicates. Every second day medium and compounds were renewed.
Cells were fixed by adding 1mL of 60% 2-Propanot in PBS to each well and incubated for 1.5h at 4°C. The cells were then twice washed with 1mL PBS/well. […]
Lipid droplets were quantified with the Cellomics® Array Scan® VTI HCS Reader. Fat droplets were detected with the provided SpotDetector® Bio-Application. The fluorescent dye, BODIPY® 493/503, was used to visualise and quantify fat droplets (number, area, intensity) in differentiated C3H10 T1/2 adipocytes. […] Channel one (Ch1) applies the XF93-Hoechst filter and is the focus channel in which objects (nuclei) are identified, whereas the spots (fat droplets) are detected in channel two (Ch2) using a XF93-FITC filter.

Q: Which results are given for O=C(/C=C/c1ccc(O)c(O)c1)O[C@H](C(=O)O)[C@H](OC(=O)/C=C/c1ccc(O)c(O)c1)C(=O)O (stereo in doubt) [chicoric acid, Chicoric acid]?
A: inhibition at 50 µM (read-out: decrease in the average number of lipid droplets per adipocyte): 69%; inhibition at 50 µM (read-out: decrease in the average size of the lipid droplets in adipocytes): 42%
